# Patent publication US11325889B2, “Substituted 3-((3-aminophenyl)amino)piperidine-2,6-dione compounds, compositions thereof, and methods of treatment therewith” (Celgene Corporation, priority 2018, dated 2022)
# Biological target: T1, AR protein in VCaP cells (Homo sapiens, UniProt P10275)
# T1 construct: endogenous in cells; host or cells: VCaP cells
# T1 sequence (P10275 1-920): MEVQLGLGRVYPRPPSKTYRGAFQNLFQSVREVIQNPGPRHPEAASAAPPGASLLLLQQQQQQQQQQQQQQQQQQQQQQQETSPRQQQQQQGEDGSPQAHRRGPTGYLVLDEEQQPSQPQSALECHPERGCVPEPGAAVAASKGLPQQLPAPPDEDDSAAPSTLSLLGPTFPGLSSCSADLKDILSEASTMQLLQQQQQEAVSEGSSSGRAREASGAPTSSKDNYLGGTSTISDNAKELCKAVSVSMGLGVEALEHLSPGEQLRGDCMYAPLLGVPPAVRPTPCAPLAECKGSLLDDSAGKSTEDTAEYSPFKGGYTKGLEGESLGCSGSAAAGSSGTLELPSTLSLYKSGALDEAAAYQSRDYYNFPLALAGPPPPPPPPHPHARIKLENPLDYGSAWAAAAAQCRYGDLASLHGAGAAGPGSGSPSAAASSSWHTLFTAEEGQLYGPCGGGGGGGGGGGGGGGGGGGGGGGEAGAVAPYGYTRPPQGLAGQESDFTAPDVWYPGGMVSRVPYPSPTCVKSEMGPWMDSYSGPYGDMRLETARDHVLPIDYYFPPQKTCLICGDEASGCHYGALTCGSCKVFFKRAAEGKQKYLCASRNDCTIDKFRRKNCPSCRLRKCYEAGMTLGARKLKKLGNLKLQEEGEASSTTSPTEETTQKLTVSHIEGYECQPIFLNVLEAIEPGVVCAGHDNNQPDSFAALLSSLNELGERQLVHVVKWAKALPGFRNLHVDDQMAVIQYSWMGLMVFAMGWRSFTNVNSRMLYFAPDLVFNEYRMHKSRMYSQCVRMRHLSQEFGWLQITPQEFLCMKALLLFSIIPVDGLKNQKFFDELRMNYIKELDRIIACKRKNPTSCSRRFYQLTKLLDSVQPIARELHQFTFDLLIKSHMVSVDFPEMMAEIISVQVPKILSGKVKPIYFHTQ
# Test: VCAP AR Degradation Assay (AR ELISA, 24 h)
# Type: cell-based
# Conditions: for Y (lowest measured AR level normalized to DMSO control): AR degradation efficiency; for DC50: concentration of compound when AR level = 50% of DMSO control, read-out: DC50
# Procedure, shortened: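 VCaP cells in DMEM with 8% FBS exposed for 24 h at 37° C to a 10-point, 1:3 series (final top concentration […]; 0.1% DMSO control). Lysate AR measured by sandwich ELISA and normalized to DMSO as percent of control. DC50, EC50 and lowest AR level (Y) from four-parameter logistic fit.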
Y (lowest measured AR level normalized to DMSO control),DC50,Structure (SMILES)
** (25%<Y<=35%),< 0.1 µM,"CCc1cc(N2C(=S)N(c3cnc(C#N)c(C(F)(F)F)c3)C(=O)C2(C)C)ccc1OCCC1CCN(CC(=O)Nc2cc(C#N)cc(NC3CCC(=O)NC3=O)c2)CC1 (stereo not drawn) [Cmpd 39, N-(3-cyano-5-(2,6-dioxopiperidin-3-ylamino)phenyl)-2-(4-(2-(4-(3-(6-cyano-5-(trifluoromethyl)pyridin-3-yl)-5,5-dimethyl-4-oxo-2-thioxoimidazolidin-1-yl)-2-ethylphenoxy)ethyl)piperidin-1-yl)acetamide]"
* (0<Y<=25%),< 0.1 µM,"CCc1cc(N2C(=S)N(c3cnc(C#N)c(C(F)(F)F)c3)C(=O)C2(C)C)ccc1OCCC1CCN([C@@H](C)C(=O)Nc2cccc(N[C@@H]3CCC(=O)NC3=O)c2)CC1 [Cmpd 44, (S)-2-(4-(2-(4-(3-(6-cyano-5-(trifluoromethyl)pyridin-3-yl)-5,5-dimethyl-4-oxo-2-thioxoimidazolidin-1-yl)-2-ethylphenoxy)ethyl)piperidin-1-yl)-N-(3-((R)-2,6-dioxopiperidin-3-ylamino)phenyl)propanamide]"
* (0<Y<=25%),< 0.1 µM,"CCc1cc(N2C(=S)N(c3cnc(C#N)c(C(F)(F)F)c3)C(=O)C2(C)C)ccc1OCCC1CCN([C@H](C)C(=O)Nc2cccc(N[C@@H]3CCC(=O)NC3=O)c2)CC1 [Cmpd 45, (R)-2-(4-(2-(4-(3-(6-cyano-5-(trifluoromethyl)pyridin-3-yl)-5,5-dimethyl-4-oxo-2-thioxoimidazolidin-1-yl)-2-ethylphenoxy)ethyl)piperidin-1-yl)-N-(3-((R)-2,6-dioxopiperidin-3-ylamino)phenyl)propanamide]"
* (0<Y<=25%),< 0.1 µM,"CCc1cc(N2C(=S)N(c3cnc(C#N)c(C(F)(F)F)c3)C(=O)C2(C)C)ccc1OCCC1CCN([C@@H](C)C(=O)Nc2cccc(N[C@H]3CCC(=O)NC3=O)c2)CC1 [Cmpd 46, (S)-2-(4-(2-(4-(3-(6-cyano-5-(trifluoromethyl)pyridin-3-yl)-5,5-dimethyl-4-oxo-2-thioxoimidazolidin-1-yl)-2-ethylphenoxy)ethyl)piperidin-1-yl)-N-(3-((S)-2,6-dioxopiperidin-3-ylamino)phenyl)propanamide]"
* (0<Y<=25%),< 0.1 µM,"CCc1cc(N2C(=S)N(c3cnc(C#N)c(C(F)(F)F)c3)C(=O)C2(C)C)ccc1OCCC1CCN([C@H](C)C(=O)Nc2cccc(N[C@H]3CCC(=O)NC3=O)c2)CC1 [Cmpd 47, (R)-2-(4-(2-(4-(3-(6-cyano-5-(trifluoromethyl)pyridin-3-yl)-5,5-dimethyl-4-oxo-2-thioxoimidazolidin-1-yl)-2-ethylphenoxy)ethyl)piperidin-1-yl)-N-(3-((S)-2,6-dioxopiperidin-3-ylamino)phenyl)propanamide]"
* (0<Y<=25%),< 0.1 µM,"CCc1cc(N2C(=S)N(c3cnc(C#N)c(C(F)(F)F)c3)C(=O)C2(C)C)ccc1OC1CCN(CC(=O)Nc2cc(Cl)cc(NC3CCC(=O)NC3=O)c2)CC1 (stereo not drawn) [Cmpd 51, N-(3-chloro-5-(2,6-dioxopiperidin-3-ylamino)phenyl)-2-(4-(4-(3-(6-cyano-5-(trifluoromethyl)pyridin-3-yl)-5,5-dimethyl-4-oxo-2-thioxoimidazolidin-1-yl)-2-ethylphenoxy)piperidin-1-yl)acetamide]"
*** (35%<Y<50%),0.1 to 0.5 µM,"CCc1cc(N2C(=S)N(c3cnc(C#N)c(C(F)(F)F)c3)C(=O)C2(C)C)ccc1OC1CCN(CC(=O)Nc2cc(NC3CCC(=O)NC3=O)ccc2F)CC1 (stereo not drawn) [Cmpd 52, 2-(4-(4-(3-(6-cyano-5-(trifluoromethyl)pyridin-3-yl)-5,5-dimethyl-4-oxo-2-thioxoimidazolidin-1-yl)-2-ethylphenoxy)piperidin-1-yl)-N-(5-(2,6-dioxopiperidin-3-ylamino)-2-fluorophenyl)acetamide]"
** (25%<Y<=35%),< 0.1 µM,"CCc1cc(N2C(=S)N(c3cnc(C#N)c(C(F)(F)F)c3)C(=O)C2(C)C)ccc1OC1CCN(CC(=O)Nc2cccc(NC3CCC(=O)NC3=O)c2)CC1 (stereo not drawn) [Cmpd 53, 2-(4-(4-(3-(6-cyano-5-(trifluoromethyl)pyridin-3-yl)-5,5-dimethyl-4-oxo-2-thioxoimidazolidin-1-yl)-2-ethylphenoxy)piperidin-1-yl)-N-(3-(2,6-dioxopiperidin-3-ylamino)phenyl)acetamide]"

Structure (SMILES),Y (lowest measured AR level normalized to DMSO control),DC50
"CCc1cc(N2C(=S)N(c3ccc(C#N)c(C(F)(F)F)c3)C(=O)C2(C)C)ccc1OCCC1CCN(CC(=O)Nc2cc(C#N)cc(NC3CCC(=O)NC3=O)c2)CC1 (stereo not drawn) [Cmpd 40, 2-(4-(2-(4-(3-(4-cyano-3-(trifluoromethyl)phenyl)-5,5-dimethyl-4-oxo-2-thioxoimidazolidin-1-yl)-2-ethylphenoxy)ethyl)piperidin-1-yl)-N-(3-cyano-5-(2,6-dioxopiperidin-3-ylamino)phenyl)acetamide]",** (25%<Y<=35%),0.1 to 0.5 µM
"CCc1cc(N2C(=S)N(c3ccc(C#N)c(C(F)(F)F)c3)C(=O)C2(C)C)ccc1OCCC1CCN([C@@H](C)C(=O)Nc2cccc(NC3CCC(=O)NC3=O)c2)CC1 (stereo partly drawn) [Cmpd 41, (2S)-2-(4-(2-(4-(3-(4-cyano-3-(trifluoromethyl)phenyl)-5,5-dimethyl-4-oxo-2-thioxoimidazolidin-1-yl)-2-ethylphenoxy)ethyl)piperidin-1-yl)-N-(3-(2,6-dioxopiperidin-3-ylamino)phenyl)propanamide]",* (0<Y<=25%),< 0.1 µM
"CCc1cc(N2C(=S)N(c3ccc(C#N)c(C(F)(F)F)c3)C(=O)C2(C)C)ccc1OCCC1CCN([C@H](C)C(=O)Nc2cccc(NC3CCC(=O)NC3=O)c2)CC1 (stereo partly drawn) [Cmpd 42, (2R)-2-(4-(2-(4-(3-(4-cyano-3-(trifluoromethyl)phenyl)-5,5-dimethyl-4-oxo-2-thioxoimidazolidin-1-yl)-2-ethylphenoxy)ethyl)piperidin-1-yl)-N-(3-(2,6-dioxopiperidin-3-ylamino)phenyl)propanamide]",** (25%<Y<=35%),0.1 to 0.5 µM
"CCc1cc(N2C(=S)N(c3ccc(C#N)c(C(F)(F)F)c3)C(=O)C23CCC3)ccc1OCCC1CCN(CC(=O)Nc2cccc(NC3CCC(=O)NC3=O)c2)CC1 (stereo not drawn) [Cmpd 43, 2-(4-(2-(4-(7-(4-cyano-3-(trifluoromethyl)phenyl)-8-oxo-6-thioxo-5,7-diazaspiro[3.4]octan-5-yl)-2-ethylphenoxy)ethyl)piperidin-1-yl)-N-(3-(2,6-dioxopiperidin-3-ylamino)phenyl)acetamide]",* (0<Y<=25%),< 0.1 µM
"CC1(C)C(=O)N(c2ccc(C#N)c(C(F)(F)F)c2)C(=S)N1c1ccc(OCCC2CCN(CC(=O)Nc3cccc(NC4CCC(=O)NC4=O)c3)CC2)c(CCF)c1 (stereo not drawn) [Cmpd 48, 2-(4-(2-(4-(3-(4-cyano-3-(trifluoromethyl)phenyl)-5,5-dimethyl-4-oxo-2-thioxoimidazolidin-1-yl)-2-(2-fluoroethyl)phenoxy)ethyl)piperidin-1-yl)-N-(3-(2,6-dioxopiperidin-3-ylamino)phenyl)acetamide]",* (0<Y<=25%),< 0.1 µM
"CCc1cc(N2C(=S)N(c3ccc(C#N)c(C(F)(F)F)c3)C(=O)C2(C)C)ccc1OC1CCN(CC(=O)Nc2cc(Cl)cc(NC3CCC(=O)NC3=O)c2)CC1 (stereo not drawn) [Cmpd 49, N-(3-chloro-5-(2,6-dioxopiperidin-3-ylamino)phenyl)-2-(4-(4-(3-(4-cyano-3-(trifluoromethyl)phenyl)-5,5-dimethyl-4-oxo-2-thioxoimidazolidin-1-yl)-2-ethylphenoxy)piperidin-1-yl)acetamide]",** (25%<Y<=35%),0.1 to 0.5 µM
"CCc1cc(N2C(=S)N(c3ccc(C#N)c(C(F)(F)F)c3)C(=O)C2(C)C)ccc1OC1CCN(CC(=O)Nc2cccc(NC3CCC(=O)NC3=O)c2)CC1 (stereo not drawn) [Cmpd 50, 2-(4-(4-(3-(4-cyano-3-(trifluoromethyl)phenyl)-5,5-dimethyl-4-oxo-2-thioxoimidazolidin-1-yl)-2-ethylphenoxy)piperidin-1-yl)-N-(3-(2,6-dioxopiperidin-3-ylamino)phenyl)acetamide]",** (25%<Y<=35%),0.1 to 0.5 µM
